We go through two compounds from ChEMBL document CHEMBL5131567, “3,5,7-Substituted Pyrazolo[4,3-d]Pyrimidine Inhibitors of Cyclin-Dependent Kinases and Cyclin K Degraders” (J Med Chem, 2022).

In assay [1] the test system is MINO. In words: Inhibition of CDK in human MINO cells assessed as dephosphorylation of C-terminus of RNA polymerase II at serine 5 incubated for 2 hrs by immunoblotting analysis. The note with it: dose 0.005-5 µM, DDE = dose-dependent effect. The assay is classed as cell-based.
Assay [2] has as its system VFN-D2. Kind of assay: In vivo induction of degradation of cyclin K in patient-derived VFN-D2 cells xenografted in NSG mouse assessed as reduction in cyclin K levels at 0.1 to 10 mg/kg, ip measured after 24 hrs by immunoblotting analysis. The settings on record: dose 0.1-10 mg/kg. The format is functional, organism-based. (Xenograft models place foreign cells or tissue in a host animal.)

In assay [3] the test system is MINO. In words: Downregulation of cyclin K levels in human MINO cells at 50 nM incubated for 2 hrs by immunoblotting analysis. The assay is classed as functional, cell-based. Background: Immunoblotting shows a protein as a band on a membrane.
Assay [4] in a line: Antiproliferative activity against human OCI-Ly2 cells assessed as cell growth inhibition measured after 72 hrs by resazurin dye based microplate reader analysis. The assay is classed as functional. (Alamar Blue is a resazurin reagent that responds to reducing activity.)
The test system of assay [5] is VFN-D2. In words: In vivo induction of degradation of cyclin K in patient-derived VFN-D2 cells xenografted in NSG mouse assessed as reduction in CDK12 levels at 0.1 to 10 mg/kg, ip measured after 24 hrs by immunoblotting analysis. The assay is classed as functional, organism-based. The settings on record: dose 0.1-10 mg/kg.
For assay [6], the system named is NU-DUL-1. Kind of assay: Antiproliferative activity against human NU-DUL-1 cells assessed as cell growth inhibition measured after 72 hrs by resazurin dye based microplate reader analysis. The format is functional.
Assay [7] can be described thus: Antiproliferative activity against human Ri-1 cells assessed as cell growth inhibition measured after 72 hrs by resazurin dye based microplate reader analysis. The assay is classed as functional.
A short description of assay [8]: Inhibition of GST-tagged human CDK5/p25 expressed in Sf9 cells using histone H1 as substrate in presence of ATP and [gamma33-P] ATP by radioisotope filter binding assay.
The test system of assay [9] is SUD4. Kind of assay: Antiproliferative activity against human SU-DHL-4 cells assessed as cell growth inhibition measured after 72 hrs by resazurin dye based microplate reader analysis. The assay is classed as functional.
Assay [10] in a line: Antiproliferative activity against human UPF1H cells assessed as cell growth inhibition measured after 72 hrs by resazurin dye based microplate reader analysis. The assay is classed as functional.
Assay [11] has as its system MINO. In words: Downregulation of mcl-1 levels in human MINO cells incubated for 2 hrs by immunoblotting analysis. The format is functional, cell-based. The settings on record: dose 2.5-40 nM, DDE = dose-dependent effect.
Assay [12] relates to MINO. In words: Inhibition of CDK in human MINO cells assessed as dephosphorylation of retinoblastoma protein incubated for 2 hrs by immunoblotting analysis. The format is cell-based. The note with it: dose 0.005-5 µM, DDE = dose-dependent effect.
Assay [13] relates to MINO. Kind of assay: Downregulation of cyclin D1 levels in human MINO cells incubated for 24 hrs by immunoblotting analysis. The assay is classed as functional, cell-based. The settings on record: dose 2.5-40 nM, DDE = dose-dependent effect.
For assay [14], the system named is MINO. Kind of assay: Induction of apoptosis in human MINO cells assessed as reduction in mcl-1 levels at 2.5 to 40 nM measured after 24 hrs by immunoblotting analysis. The assay is classed as functional, cell-based. The note with it: dose 2.5-40 nM.
The test system of assay [15] is OCI-LY19. In words: Antiproliferative activity against human OCILY19 cells assessed as cell growth inhibition measured after 72 hrs by resazurin dye based microplate reader analysis. The assay is classed as functional.
The subject of assay [16] is MINO. Kind of assay: Downregulation of CDK4 levels in human MINO cells incubated for 24 hrs by immunoblotting analysis. The format is functional, cell-based. The settings on record: dose 2.5-40 nM, DDE = dose-dependent effect.
The test system of assay [17] is MINO. Kind of assay: Downregulation of RB levels in human MINO cells incubated for 24 hrs by immunoblotting analysis. The assay is classed as functional, cell-based. The settings on record: dose 2.5-40 nM, DDE = dose-dependent effect.
Assay [18] addresses Cyclin-dependent kinase 2/G1/S-specific cyclin-D1 (Homo sapiens, UniProt P24385+P24941). The assay is classed as cell-based, Sf9.
Assay [19] has as its system MINO. In words: Induction of degradation of cyclin K in human MINO cells coexpressing DDB1 with siRNA assessed as stabilization of cyclin K levels at 100 nM measured after 1 hrs by immunoblotting analysis. The assay is classed as functional, cell-based.
Assay [20] concerns the target CDK9/cyclin T1 (Homo sapiens, UniProt P50750). Kind of assay: Inhibition of GST-tagged human CDK9/Cyclin T1 expressed in Sf9 cells using (YSPTSPS)2KK peptide as substrate in presence of ATP and [gamma33-P] ATP by radioisotope filter binding assay. The format is cell-based.
Assay [21] deals with MINO. Kind of assay: Downregulation of cyclin K levels in human MINO cells at 5 nM incubated for 2 hrs by immunoblotting analysis. The assay is classed as functional, cell-based.
A short description of assay [22]: Antiproliferative activity against human MINO cells assessed as cell growth inhibition measured after 72 hrs by resazurin dye based microplate reader analysis. The assay is classed as functional.
The target of assay [23] is CDK12/Cyclin K (Homo sapiens, UniProt Q9NYV4). In words: Inhibition of GST-tagged human CDK12/Cyclin K expressed in Sf9 cells using RBER-IRStide peptide as substrate in presence of ATP and [gamma33-P] ATP by radioisotope filter binding assay.
Chain of CDK12/Cyclin K (O75909 whole entry): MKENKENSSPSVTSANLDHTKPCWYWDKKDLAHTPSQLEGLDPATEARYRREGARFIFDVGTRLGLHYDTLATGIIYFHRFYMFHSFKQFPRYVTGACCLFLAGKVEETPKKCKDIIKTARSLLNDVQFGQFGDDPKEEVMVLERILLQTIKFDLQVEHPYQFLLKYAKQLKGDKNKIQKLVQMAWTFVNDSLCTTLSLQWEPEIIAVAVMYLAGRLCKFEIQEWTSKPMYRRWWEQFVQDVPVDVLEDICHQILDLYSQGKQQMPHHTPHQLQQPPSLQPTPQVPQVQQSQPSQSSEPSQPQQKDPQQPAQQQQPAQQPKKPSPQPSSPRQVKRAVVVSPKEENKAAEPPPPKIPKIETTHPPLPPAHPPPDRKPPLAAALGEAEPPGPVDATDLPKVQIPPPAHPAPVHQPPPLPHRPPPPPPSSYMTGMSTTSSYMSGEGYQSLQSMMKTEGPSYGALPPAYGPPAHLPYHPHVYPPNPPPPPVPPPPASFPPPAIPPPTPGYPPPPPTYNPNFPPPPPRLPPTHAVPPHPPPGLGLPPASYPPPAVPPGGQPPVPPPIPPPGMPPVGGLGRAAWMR
Chain of CDK12/Cyclin K (Q9NYV4 whole entry): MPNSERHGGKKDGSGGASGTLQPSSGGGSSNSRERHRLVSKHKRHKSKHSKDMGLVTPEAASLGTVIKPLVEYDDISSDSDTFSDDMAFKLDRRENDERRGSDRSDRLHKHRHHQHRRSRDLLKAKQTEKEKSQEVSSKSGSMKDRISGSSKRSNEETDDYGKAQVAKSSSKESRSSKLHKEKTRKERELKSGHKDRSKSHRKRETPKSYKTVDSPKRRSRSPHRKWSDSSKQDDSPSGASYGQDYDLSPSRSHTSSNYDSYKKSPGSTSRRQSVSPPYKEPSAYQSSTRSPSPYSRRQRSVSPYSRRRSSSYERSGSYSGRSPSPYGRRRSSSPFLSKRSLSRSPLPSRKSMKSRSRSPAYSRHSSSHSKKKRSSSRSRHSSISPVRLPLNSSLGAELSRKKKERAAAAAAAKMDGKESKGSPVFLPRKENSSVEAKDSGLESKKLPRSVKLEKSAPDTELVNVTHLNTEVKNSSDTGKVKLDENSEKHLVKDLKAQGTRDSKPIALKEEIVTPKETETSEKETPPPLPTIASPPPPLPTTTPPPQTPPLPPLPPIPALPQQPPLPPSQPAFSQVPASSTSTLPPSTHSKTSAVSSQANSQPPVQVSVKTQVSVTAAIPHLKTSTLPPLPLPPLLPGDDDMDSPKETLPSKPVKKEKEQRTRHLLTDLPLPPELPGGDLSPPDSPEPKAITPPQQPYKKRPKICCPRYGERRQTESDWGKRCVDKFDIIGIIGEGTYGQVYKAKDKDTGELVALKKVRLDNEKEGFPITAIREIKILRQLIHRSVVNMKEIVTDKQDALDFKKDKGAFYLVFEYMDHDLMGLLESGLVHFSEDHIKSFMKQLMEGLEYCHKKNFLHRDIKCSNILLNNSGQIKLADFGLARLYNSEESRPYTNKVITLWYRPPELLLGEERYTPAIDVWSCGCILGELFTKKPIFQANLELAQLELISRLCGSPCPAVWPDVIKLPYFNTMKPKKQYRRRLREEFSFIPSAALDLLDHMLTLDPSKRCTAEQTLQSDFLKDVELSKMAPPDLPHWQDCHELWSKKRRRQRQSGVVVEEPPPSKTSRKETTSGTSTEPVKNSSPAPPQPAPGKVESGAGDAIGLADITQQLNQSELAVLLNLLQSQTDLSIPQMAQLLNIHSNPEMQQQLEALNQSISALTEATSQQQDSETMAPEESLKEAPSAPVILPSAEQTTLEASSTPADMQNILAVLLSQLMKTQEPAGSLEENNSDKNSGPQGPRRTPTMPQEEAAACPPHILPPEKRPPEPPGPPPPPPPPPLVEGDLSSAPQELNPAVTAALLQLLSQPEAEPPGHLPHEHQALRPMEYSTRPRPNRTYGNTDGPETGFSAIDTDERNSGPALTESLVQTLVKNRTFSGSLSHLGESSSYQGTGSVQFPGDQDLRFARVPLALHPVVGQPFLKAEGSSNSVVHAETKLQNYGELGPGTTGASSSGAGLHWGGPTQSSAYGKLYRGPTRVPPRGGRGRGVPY
For assay [24], the target named is Cyclin-dependent kinase 2/cyclin E1 (Homo sapiens, UniProt P24941). In words: Inhibition of His-tagged CDK2/cyclin E1 (unknown origin) expressed in Sf9 cells using histone H1 as substrate in presence of ATP and [gamma33-P]ATP by radioisotope filter binding assay. The assay is classed as cell-based.
Assay [25] relates to U2932. Kind of assay: Antiproliferative activity against human U2932 cells assessed as cell growth inhibition measured after 72 hrs by resazurin dye based microplate reader analysis. The assay is classed as functional.
Assay [26] deals with MINO. Kind of assay: Inhibition of CDK in human MINO cells assessed as dephosphorylation of C-terminus of RNA polymerase II at serine 2 incubated for 2 hrs by immunoblotting analysis. The assay is classed as cell-based. The note with it: dose 0.005-5 µM, DDE = dose-dependent effect.
Assay [27] relates to MINO. Kind of assay: Induction of apoptosis in human MINO cells assessed as reduction in XIAP levels at 2.5 to 40 nM measured after 24 hrs by immunoblotting analysis. The format is functional, cell-based. The settings on record: dose 2.5-40 nM.
The target in assay [28] is Cyclin-dependent kinase 13/Cyclin-K (Homo sapiens, UniProt Q14004). In words: Inhibition of GST-tagged human CDK13/Cyclin K expressed in Sf9 cells using RBER-IRStide peptide as substrate in presence of ATP and [gamma33-P] ATP by radioisotope filter binding assay.
Chain of Cyclin-dependent kinase 13/Cyclin-K (Q14004 whole entry): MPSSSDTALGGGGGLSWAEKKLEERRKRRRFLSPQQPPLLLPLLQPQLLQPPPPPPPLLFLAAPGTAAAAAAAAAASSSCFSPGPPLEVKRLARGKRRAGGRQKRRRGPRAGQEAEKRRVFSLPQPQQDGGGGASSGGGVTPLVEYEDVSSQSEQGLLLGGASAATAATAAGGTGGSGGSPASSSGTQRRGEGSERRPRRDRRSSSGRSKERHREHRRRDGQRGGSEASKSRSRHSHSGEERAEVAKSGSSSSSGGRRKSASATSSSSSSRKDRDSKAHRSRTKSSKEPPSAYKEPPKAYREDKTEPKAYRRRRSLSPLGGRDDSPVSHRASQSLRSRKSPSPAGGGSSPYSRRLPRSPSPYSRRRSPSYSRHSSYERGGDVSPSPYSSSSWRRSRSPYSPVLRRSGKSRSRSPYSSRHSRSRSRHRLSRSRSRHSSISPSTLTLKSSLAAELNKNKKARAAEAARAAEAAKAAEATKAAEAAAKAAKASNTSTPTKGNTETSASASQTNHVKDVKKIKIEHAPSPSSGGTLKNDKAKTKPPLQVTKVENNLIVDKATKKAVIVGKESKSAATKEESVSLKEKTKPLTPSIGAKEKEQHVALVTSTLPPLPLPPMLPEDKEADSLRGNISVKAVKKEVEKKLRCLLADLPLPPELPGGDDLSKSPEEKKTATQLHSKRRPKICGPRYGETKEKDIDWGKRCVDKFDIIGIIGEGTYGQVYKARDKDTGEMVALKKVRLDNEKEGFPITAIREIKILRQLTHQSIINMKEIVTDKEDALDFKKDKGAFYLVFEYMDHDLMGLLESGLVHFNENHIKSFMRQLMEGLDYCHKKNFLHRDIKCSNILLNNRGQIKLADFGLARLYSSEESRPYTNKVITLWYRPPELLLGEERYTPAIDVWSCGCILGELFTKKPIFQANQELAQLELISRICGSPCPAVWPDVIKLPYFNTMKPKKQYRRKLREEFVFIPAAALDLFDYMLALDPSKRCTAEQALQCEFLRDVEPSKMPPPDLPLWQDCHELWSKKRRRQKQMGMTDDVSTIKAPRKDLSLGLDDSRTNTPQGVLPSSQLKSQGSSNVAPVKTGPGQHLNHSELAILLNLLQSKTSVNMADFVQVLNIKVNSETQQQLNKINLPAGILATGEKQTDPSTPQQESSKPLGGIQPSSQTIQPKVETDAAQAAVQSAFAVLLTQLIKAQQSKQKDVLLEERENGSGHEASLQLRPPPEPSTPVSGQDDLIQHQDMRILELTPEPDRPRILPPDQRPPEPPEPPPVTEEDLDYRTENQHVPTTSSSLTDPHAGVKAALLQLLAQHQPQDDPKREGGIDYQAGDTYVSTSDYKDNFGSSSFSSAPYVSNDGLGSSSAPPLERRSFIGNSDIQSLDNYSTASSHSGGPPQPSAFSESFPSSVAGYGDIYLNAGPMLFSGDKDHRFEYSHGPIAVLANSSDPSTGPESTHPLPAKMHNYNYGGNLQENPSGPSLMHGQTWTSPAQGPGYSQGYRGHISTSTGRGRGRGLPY
Chain of Cyclin-dependent kinase 13/Cyclin-K (O75909 whole entry, further chain): as the sequence (O75909 whole entry) above
In assay [29] the test system is DB. Kind of assay: Antiproliferative activity against human DB cells assessed as cell growth inhibition measured after 72 hrs by resazurin dye based microplate reader analysis. The format is functional.
For assay [30], the target named is Serine/threonine-protein kinase PAK 4 (Homo sapiens) (UniProt O96013). In words: Inhibition of human PAK4 (2 to 591 residues) expressed in Escherichia coli expression system at 1 uM using RRRLSFAEPG peptide as substrate incubated for 30 mins in presence of [gamma33P]ATP by scintillation based radioactive filter binding assay relative to control.
For assay [31], the target named is Dual specificity tyrosine-phosphorylation-regulated kinase 1A (Homo sapiens) (UniProt Q13627). Kind of assay: Inhibition of human DYRK1A (1 to 502 residues) expressed in Escherichia coli expression system at 1 uM using KKISGRLSPIMTEQ peptide as substrate incubated for 30 mins in presence of [gamma33P]ATP by scintillation based radioactive filter binding assay relative to control.

For assay [32], the target named is Glycogen synthase kinase-3 beta (Homo sapiens) (UniProt P49841). Kind of assay: Inhibition of human GSK3beta (2 to 420 residues) expressed in Sf21 cells at 1 uM using YRRAAVPPSPSLSRHSSPHQS(PO4)EDEEE peptide as substrate incubated for 30 mins in presence of [gamma33P]ATP by scintillation based radioactive filter binding assay relative to control.

Calls of active or inactive are those of the source. The calls are words filed in the database; no cut-off is given here. Some results are limits rather than exact numbers.

Chain of CDK9/cyclin T1 (O60563 whole entry): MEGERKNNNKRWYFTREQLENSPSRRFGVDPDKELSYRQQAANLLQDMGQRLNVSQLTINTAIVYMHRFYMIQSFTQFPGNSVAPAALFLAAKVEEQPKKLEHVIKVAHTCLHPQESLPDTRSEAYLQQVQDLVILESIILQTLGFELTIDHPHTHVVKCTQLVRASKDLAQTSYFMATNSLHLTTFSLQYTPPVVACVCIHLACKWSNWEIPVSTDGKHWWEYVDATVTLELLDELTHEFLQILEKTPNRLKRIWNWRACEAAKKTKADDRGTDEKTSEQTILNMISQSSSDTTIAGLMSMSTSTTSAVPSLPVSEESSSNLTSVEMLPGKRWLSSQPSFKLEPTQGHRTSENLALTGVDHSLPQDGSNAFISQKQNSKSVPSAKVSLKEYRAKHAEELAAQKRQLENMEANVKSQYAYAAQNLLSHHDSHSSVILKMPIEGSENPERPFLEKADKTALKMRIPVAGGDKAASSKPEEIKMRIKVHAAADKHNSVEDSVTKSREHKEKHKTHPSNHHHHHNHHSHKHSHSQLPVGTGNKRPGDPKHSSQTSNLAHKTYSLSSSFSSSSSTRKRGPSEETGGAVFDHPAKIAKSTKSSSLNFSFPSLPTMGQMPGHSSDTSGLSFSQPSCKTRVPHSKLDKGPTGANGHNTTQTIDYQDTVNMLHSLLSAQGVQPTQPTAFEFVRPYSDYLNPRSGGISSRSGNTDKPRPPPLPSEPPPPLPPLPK
Chain of CDK9/cyclin T1 (P50750 whole entry): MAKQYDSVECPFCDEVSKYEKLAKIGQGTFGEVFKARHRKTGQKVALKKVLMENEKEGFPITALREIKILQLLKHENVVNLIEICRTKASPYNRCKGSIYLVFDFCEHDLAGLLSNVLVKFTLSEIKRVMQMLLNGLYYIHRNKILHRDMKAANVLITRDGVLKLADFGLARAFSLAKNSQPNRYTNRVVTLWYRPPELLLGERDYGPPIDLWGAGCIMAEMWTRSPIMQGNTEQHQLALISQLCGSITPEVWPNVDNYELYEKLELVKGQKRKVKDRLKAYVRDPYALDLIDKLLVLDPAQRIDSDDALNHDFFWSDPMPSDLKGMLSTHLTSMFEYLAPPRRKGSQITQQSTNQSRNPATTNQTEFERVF

The term GI50 denotes the concentration that inhibits growth by half. One may read the IC50 as the point on the concentration scale where inhibition reaches its midpoint. `NCCSc1nc(NCc2ccc(-n3cccn3)cc2)c2[nH]nc(C3CCC3)c2n1`: the Activity entry in assay [1], in assay [11], in assay [12], in assay [13], in [16] and in assay [17] was “Dde” each time. In addition, the Activity result in [26] was “Dde”. The outcome in [2], in assay [3], in assay [5], in [14], in assay [19] and in [21] was Active. Further, the result in assay [27] was Active. The GI50 was determined as 0.011 µM in assay [4]; 0.015 µM in [6]; 0.054 µM in assay [7]; 0.028 µM in assay [9]; 0.01 µM in assay [10]; 0.465 µM in assay [15]. For the same compound, the GI50 in [22] was determined as 0.01 µM; in assay [25], 0.055 µM; in assay [29], 0.02 µM. The IC50 in [8] was 0.039 µM; in assay [18], above 1 µM; in assay [20], 0.02 µM; in assay [23], 0.064 µM; in assay [24], 0.004 µM; in assay [28], 0.022 µM.

By inhibition is commonly meant how much of the control response was suppressed. As for `CC(O)CSc1nc(NCc2ccc(-n3cccn3)cc2)c2n[nH]c(C(C)C)c2n1` (configuration not stated), the GI50 was found to be 0.055 µM in assay [4]; 0.062 µM in assay [6]; 0.061 µM in assay [7]; 0.105 µM in assay [9]; 0.061 µM in assay [10]; 0.101 µM in assay [15]. In addition, the concentration for 50% growth inhibition (GI50) worked out at 0.018 µM in [22], 0.059 µM in assay [25] and 0.078 µM in assay [29]. For the same compound, the IC50 is 0.179 µM in assay [8]; above 1 µM in assay [18]; 0.062 µM in [20]; 0.156 µM in assay [23]; 0.006 µM in assay [24]; 0.122 µM in assay [28]. The inhibition in assay [30], in assay [31] and in assay [32] was above 50% in each case.
